Data: PMC12698583, “Efficacy of sulfonamides targeting malic enzyme in an animal model of Chagas disease” (Frontiers in Pharmacology, 2025)
pEC50, pIC50: −log10 of the molar value. Entries after “also recorded” stand apart in the source; their conditions may differ. Where two headings read alike, the source gives them in different places.

Columns and labels:
[1] = molecular target: T1, T. cruzi malic enzyme (TcME) (Trypanosoma cruzi, UniProt Q4DJ68); test: Malic enzyme (TcME) inhibition assay, diaphorase/resazurin coupled; format: biochemical
Method: The TcME inhibition assay was performed as previously described, with minor modifications ([Mercaldi et al., 2021]). Briefly, a coupled assay with the enzyme diaphorase and resorufin fluorescence (Ex 545 nm/Em 600 nm) was recorded every 30 s for 6 min in a CLARIOstar plate reader (BMG LabTech). The final concentrations of reagents in the assay were: 0.02 mM NADP+, 0.4 mM L-aspartate, 0.45 nM TcMEc, 1 U/mL diaphorase, and 10 μM resazurin, all in 50 mM Tris-HCl buffer containing 50 mM NaCl and 2 mM MnCl2 at pH 7.5. The reaction was initiated by adding 1.32 mM L-malate.

[2] = test system: T. cruzi Dm28c strain intracellular form infecting H9c2 rat cardiomyoblasts; test: T. cruzi intracellular image-based assay; format: cell-based, Trypanosoma cruzi
Method: (§1) Tested compounds were dissolved and serially diluted in dimethylsulfoxide (DMSO) using a half-log dilution across six concentrations. Intermediate plates were prepared by diluting compounds 1:25 in DMEM (Dulbecco’s Modified Eagle Medium) with 10% FBS (Fetal Bovine Serum). The assay was based on [Fredo Naciuk et al. (2020)], with minor modifications. Briefly, T. cruzi trypomastigotes (from LLC-MK2 cultures, 6 days post-infection) were used to infect H9c2 rat cardiomyoblasts overnight (16–18 h) at MOI 1. After washing with PBS, cells were trypsinized and resuspended in DMEM at 2.3 × 10^4 cells/mL. Then, 65 μL per well was plated in 384-well plates and incubated for 24 h (37 °C, 5% CO2, >95% humidity). Subsequently, 7.5 μL of compound solution was added (final [DMSO] 0.4%). After 72 h of treatment, cells were fixed with 4% PFA and stained with Hoechst 33342 (4 μg/mL). Six images per well were acquired using the Operetta system (PerkinElmer) and analyzed with Columbus software to quantify infected cells (≥3 cytoplasmic parasite spots).

[3] = Host cell cytotoxicity in the image-based assay (total host cells); conditions: rat, H9c2 rat cardiomyoblasts (infected with T. cruzi), 72 h treatment
Method: as §1

[4] = Chemical stability at physiological pHs; format: physicochemical; conditions: basic pH, 37 °C, 24 h
Method: These conditions simulate stomach acidity, plasma neutrality, and intestinal basicity.
For the chemical stability experiment, the compounds were evaluated under the same conditions with an additional incubation at 37 °C for a period of 24 h. The analysis was performed using an analytical method developed and validated by high-performance liquid chromatography with UV detection (HPLC-UV). Compounds were quantified in different pH media by comparing the areas where the substances were completely soluble with those in the reaction media. The experiments were performed in a triplicate.
These conditions simulate stomach acidity, plasma neutrality, and intestinal basicity. […] For the chemical stability experiment, the compounds were evaluated under the same conditions with an additional incubation at 37°C for a period of 24 hours. The analysis was performed using an analytical method developed and validated by high-performance liquid chromatography with UV detection (HPLC-UV). Compounds were quantified in the different pH media by comparing the areas where the substances were completely soluble with those in the reaction media. The experiments were performed in triplicate.

[5] = test system: T. cruzi Dm28c strain intracellular form infecting H9c2 rat cardiomyoblasts; conditions: cited from earlier work
[6] = test system: H9c2 rat cardiomyoblasts; parameters: method as in Mercaldi et al. (2021) and Peña et al. (2015); conditions: total host cells; ref Mercaldi et al. (2021) and Peña et al. (2015); cited from earlier work
[7] = molecular target: T1, T. cruzi malic enzyme (TcME); parameters: method as in Mercaldi et al. (2021); conditions: TcME (cytosolic isoform); ref Mercaldi et al. (2021); cited from earlier work

T1 sequence (Q4DJ68 entry or part of it): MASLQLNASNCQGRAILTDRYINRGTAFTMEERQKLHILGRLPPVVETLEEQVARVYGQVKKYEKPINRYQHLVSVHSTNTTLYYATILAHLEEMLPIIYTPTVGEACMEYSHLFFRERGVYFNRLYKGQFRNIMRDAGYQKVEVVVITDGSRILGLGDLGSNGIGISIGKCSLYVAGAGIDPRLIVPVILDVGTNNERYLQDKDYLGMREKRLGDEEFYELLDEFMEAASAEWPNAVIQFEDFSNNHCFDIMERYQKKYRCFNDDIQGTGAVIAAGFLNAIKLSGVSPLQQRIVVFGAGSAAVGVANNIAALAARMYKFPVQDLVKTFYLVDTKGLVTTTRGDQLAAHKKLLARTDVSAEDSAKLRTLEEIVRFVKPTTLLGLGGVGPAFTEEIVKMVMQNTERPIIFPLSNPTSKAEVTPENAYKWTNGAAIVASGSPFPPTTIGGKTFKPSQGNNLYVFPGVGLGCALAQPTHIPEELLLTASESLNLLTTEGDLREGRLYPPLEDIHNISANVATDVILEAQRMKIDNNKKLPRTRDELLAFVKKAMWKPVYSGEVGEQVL

Compound | activity against TcME (in words) [1] | activity against T. cruzi intracellular forms (in words) [2] | also measured
COc1ccc(NS(=O)(=O)c2cccc(N)c2)cc1 [compound 9, 3-amino-N-(4-methoxyphenyl)benzenesulfonamide] | not active | not active | –
CC(C)Oc1ccc(NS(=O)(=O)c2cccc([N+](=O)[O-])c2)cc1 [compound 6, N-(4-isopropoxyphenyl)-3-nitrobenzenesulfonamide] | not active | not active | –
CC(C)Oc1ccc(NS(=O)(=O)c2ccc(NC(=O)c3cnccn3)cc2)cc1 [AC-R010, N-(4-(N-(4-isopropoxyphenyl)sulfamoyl)phenyl)pyrazine-2-carboxamide] | not active | Inactive; also recorded: didn´t affect the parasite | –
COc1ccc(NS(=O)(=O)c2ccc(NC(=O)c3cc(F)cc(F)c3)cc2)cc1 [AC-R001, 3,5-difluoro-N-(4-(N-(4-methoxyphenyl)sulfamoyl)phenyl)benzamide] | not active | Inactive; also recorded: didn´t affect the parasite | –
CC(C)Oc1ccc(NS(=O)(=O)c2cccc(N)c2)cc1 [compound 10, 3-amino-N-(4-isopropoxyphenyl)benzenesulfonamide] | not active | not active | –
COc1ccc(NS(=O)(=O)c2ccc(NC(=O)c3cnccn3)cc2)cc1 [AC-R009, N-(4-(N-(4-methoxyphenyl)sulfamoyl)phenyl)pyrazine-2-carboxamide] | not active | Inactive; also recorded: didn´t affect the parasite | –
CC(C)Oc1ccc(NS(=O)(=O)c2cccc(NC(=O)c3cc(F)cc(F)c3)c2)cc1 [AC-M109, 3,5-difluoro-N-(3-(N-(4-isopropoxyphenyl)sulfamoyl)phenyl)benzamide] | – | – | pIC50 ([1]; concentration necessary to inhibit 50% of T. cruzi Malic enzyme enzymatic activity): 6.07; SI ([2]; Selectivity index): 318; CC50 at 72 h [3]: 12000 nM; Chemical stability [4]: ≤ 40%
COc1ccc(NS(=O)(=O)c2cccc([N+](=O)[O-])c2)cc1 [compound 5, N-(4-methoxyphenyl)-3-nitrobenzenesulfonamide] | not active | not active | –
COc1ccc(NS(=O)(=O)c2cccc(NC(=O)c3cc(F)cc(F)c3)c2)cc1 [TCMDC-143108] | – | – | SI ([5]; Selectivity index, ref Mercaldi et al. (2021) and Peña et al. (2015)): > 84; pEC50 ([5]; host cells infected by T. cruzi amastigotes, ref Peña et al. (2015)): 6.30; CC50 [6]: > 42000 nM; pIC50 [7]: 7.10
